{"source": "ChEMBL document CHEMBL1201862", "about": "“PubChem BioAssay data set” (2004)", "key": {"Kallikrein-7": {"target": "Kallikrein-7 (Homo sapiens, UniProt P49862)", "sequence (P49862 whole entry)": "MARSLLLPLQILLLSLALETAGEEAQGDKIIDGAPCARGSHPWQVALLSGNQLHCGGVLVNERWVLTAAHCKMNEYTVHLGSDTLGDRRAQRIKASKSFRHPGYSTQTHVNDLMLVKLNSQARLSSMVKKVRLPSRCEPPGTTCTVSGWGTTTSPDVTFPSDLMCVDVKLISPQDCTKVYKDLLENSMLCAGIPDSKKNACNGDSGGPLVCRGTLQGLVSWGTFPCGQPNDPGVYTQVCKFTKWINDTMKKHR", "experiment": "Fluorescence Intensity-based biochemical primary high throughput dose response assay to identify activators of kallikrein-7 (K7) zymogen."}, "[1]": {"target": "SWI/SNF-related matrix-associated actin-dependent regulator of chromatin subfamily A member 2 (Homo sapiens, UniProt P51531)", "sequence (P51531 whole entry)": "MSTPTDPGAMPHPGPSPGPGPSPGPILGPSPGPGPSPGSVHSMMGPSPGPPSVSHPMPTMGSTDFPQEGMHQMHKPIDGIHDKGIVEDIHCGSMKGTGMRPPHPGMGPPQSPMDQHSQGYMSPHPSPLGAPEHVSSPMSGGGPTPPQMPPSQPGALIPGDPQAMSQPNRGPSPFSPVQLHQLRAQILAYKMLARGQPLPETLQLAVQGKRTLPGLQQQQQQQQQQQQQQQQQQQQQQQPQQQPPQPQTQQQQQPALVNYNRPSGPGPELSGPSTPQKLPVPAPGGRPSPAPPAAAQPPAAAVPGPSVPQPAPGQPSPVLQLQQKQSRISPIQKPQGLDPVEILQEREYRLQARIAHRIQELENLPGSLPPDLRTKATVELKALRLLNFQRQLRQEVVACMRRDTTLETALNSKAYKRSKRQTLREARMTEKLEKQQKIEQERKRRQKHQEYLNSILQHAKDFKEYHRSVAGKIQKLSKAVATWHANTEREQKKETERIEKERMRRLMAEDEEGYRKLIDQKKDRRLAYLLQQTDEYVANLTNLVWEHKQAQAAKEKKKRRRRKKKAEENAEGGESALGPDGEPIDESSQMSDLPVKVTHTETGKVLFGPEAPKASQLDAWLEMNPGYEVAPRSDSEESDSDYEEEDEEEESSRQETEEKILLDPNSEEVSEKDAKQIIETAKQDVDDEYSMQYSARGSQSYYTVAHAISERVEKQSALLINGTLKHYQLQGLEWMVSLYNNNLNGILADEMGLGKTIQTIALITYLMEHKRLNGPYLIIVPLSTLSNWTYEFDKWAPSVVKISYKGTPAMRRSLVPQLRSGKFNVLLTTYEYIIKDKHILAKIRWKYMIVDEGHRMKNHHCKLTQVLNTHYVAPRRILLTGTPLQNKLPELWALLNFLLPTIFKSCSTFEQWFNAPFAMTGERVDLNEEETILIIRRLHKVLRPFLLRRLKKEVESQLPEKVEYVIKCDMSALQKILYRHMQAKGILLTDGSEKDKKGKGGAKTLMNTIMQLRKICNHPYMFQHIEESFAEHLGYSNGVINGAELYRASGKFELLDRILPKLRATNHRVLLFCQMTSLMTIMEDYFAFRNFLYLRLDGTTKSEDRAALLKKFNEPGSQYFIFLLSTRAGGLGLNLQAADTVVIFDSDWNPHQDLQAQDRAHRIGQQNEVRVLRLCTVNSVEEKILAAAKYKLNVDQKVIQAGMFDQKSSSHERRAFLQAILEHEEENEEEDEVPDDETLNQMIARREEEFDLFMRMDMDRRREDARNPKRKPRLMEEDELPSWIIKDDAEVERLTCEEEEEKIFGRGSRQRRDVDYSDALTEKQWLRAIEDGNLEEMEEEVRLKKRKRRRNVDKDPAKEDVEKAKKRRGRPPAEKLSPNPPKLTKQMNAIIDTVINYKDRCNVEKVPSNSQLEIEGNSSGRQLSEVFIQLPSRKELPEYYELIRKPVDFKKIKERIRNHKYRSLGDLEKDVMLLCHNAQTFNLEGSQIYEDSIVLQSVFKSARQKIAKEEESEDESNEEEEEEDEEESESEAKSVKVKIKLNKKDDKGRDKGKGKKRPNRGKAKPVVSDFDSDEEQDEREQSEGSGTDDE", "experiment": "Luminescence-based cell-based high throughput dose response assay to identify activators of the function of SWI/SNF related, matrix associated, actin dependent regulator of chromatin, subfamily a, member 2 (SMARCA2, BRM).", "assay_type": "functional"}, "[2]": {"experiment": "Counterscreen for activators of the function of SWI/SNF related, matrix associated, actin dependent regulator of chromatin, subfamily a, member 2 (SMARCA2, BRM): Luminescence-based cell-based high throughput dose response assay to identify non-selective compounds using the VP16 reporter assay.", "assay_type": "functional"}, "[3]": {"experiment": "Trypanosoma cruzi growth suppression in host cells – NIH3T3 host cells, beta-gal luminescence, confirmation (AID 2044);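 also: intracellular parasites grown in NIH/3T3 mouse fibroblasts as host cells; luminescent beta-galactosidase reporter signal from transgenic T. cruzi replicating inside host cells; inhibitors lower the luminescence signal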", "assay_type": "functional, cell-based"}, "Albumin": {"target": "Albumin (Bos taurus, UniProt P02769)", "sequence (P02769 whole entry)": "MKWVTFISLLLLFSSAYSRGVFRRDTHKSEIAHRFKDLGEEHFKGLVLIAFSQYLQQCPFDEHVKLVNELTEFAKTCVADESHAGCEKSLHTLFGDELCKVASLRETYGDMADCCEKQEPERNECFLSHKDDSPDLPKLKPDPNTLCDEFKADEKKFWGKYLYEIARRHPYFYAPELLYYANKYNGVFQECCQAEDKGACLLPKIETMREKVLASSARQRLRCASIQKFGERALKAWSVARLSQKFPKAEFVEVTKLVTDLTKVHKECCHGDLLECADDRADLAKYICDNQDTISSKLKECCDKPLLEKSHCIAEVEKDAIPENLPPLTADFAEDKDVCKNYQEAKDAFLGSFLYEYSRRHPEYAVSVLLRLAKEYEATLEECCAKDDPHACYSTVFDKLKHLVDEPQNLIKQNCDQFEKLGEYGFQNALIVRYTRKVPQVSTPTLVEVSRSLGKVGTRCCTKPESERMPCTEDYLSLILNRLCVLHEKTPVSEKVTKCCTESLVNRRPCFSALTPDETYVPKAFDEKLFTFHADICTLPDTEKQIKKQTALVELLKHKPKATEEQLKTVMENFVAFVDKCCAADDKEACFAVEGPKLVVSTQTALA", "experiment": "Counterscreen for inhibitors of T-cell receptor (TCR)-CD3 interaction: Fluorescence-based biochemical high throughput dose response assay to identify inhibitors of T-cell receptor (TCR)-CD3 interaction using a TAMRA-labeled BSA probe.", "assay_type": "functional"}, "[4]": {"experiment": "NIH3T3 cell viability loss – ATP luminescence, mouse fibroblasts, counter-screen, dose response (AID 2010);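 also: cells exposed to compound for about 90 hours before reading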", "assay_type": "functional, cell-based"}, "[5]": {"target": "Metabotropic glutamate receptor 3 (Rattus norvegicus, UniProt P31422)", "sequence (P31422 whole entry)": "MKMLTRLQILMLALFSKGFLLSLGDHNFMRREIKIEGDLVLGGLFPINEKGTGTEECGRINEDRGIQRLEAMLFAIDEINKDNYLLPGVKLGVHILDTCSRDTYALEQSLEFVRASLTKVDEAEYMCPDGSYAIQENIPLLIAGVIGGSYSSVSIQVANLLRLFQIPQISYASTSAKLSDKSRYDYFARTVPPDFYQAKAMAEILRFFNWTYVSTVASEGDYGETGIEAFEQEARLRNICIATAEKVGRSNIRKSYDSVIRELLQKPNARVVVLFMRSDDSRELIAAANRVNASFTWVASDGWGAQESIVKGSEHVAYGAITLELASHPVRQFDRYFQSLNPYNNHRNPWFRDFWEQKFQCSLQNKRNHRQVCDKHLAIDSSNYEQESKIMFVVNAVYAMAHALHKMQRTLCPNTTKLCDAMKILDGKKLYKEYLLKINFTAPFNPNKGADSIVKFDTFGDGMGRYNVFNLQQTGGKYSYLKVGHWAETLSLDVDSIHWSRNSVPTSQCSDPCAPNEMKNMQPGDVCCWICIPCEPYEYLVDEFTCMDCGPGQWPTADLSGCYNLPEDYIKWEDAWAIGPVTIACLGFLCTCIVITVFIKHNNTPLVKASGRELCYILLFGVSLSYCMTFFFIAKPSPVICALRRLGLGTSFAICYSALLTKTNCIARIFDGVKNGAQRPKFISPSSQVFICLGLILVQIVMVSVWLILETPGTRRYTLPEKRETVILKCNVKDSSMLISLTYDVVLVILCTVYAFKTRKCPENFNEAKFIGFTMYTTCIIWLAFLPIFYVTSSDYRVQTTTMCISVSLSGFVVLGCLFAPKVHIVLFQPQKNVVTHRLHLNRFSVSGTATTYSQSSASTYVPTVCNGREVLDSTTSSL", "experiment": "inhibition of rat mGlu3 glutamate signaling – HEK/GIRK cells, thallium flux, dose response (AID 651839)", "assay_type": "functional"}, "[6]": {"experiment": "general mammalian cell viability loss – inhibitor set, cherry-pick, set 2, cytotoxicity control for miR-122 modulator project, dose response (AID 720697)", "assay_type": "functional, cell-based"}, "[7]": {"experiment": "general mammalian cell viability loss – activator set, cherry-pick, cytotoxicity control for miR-122 modulator project, dose response (AID 720690);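 also: HEK293T human cells scored for general mammalian cytotoxicity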", "assay_type": "functional, cell-based"}, "[8]": {"target": "T1, Sentrin-specific protease 8 (Homo sapiens, UniProt Q96LD8)", "T1 sequence (Q96LD8 whole entry)": "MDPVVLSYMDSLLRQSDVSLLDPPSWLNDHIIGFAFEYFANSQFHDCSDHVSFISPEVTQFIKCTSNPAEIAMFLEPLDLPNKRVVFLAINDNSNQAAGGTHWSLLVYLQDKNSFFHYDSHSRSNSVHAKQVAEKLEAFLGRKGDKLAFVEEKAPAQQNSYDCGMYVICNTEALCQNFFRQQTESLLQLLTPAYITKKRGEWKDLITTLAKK", "assay_type": "functional"}, "[9]": {"target": "T1, Sentrin-specific protease 8", "assay_type": "functional", "remark": "listed apart in the source"}, "[10]": {"experiment": "OVCAR8 cell viability loss – plate reader, dry powder samples, PAX8 project, dose response (AID 743197)", "assay_type": "functional, cell-based", "details": "OVCAR-8"}, "[11]": {"experiment": "OVCAR-3 cell viability loss – plate reader, dry powder samples, PAX8 inhibitor project, dose response (AID 743044)", "assay_type": "functional, cell-based"}, "Paired box protein Pax-8": {"target": "Paired box protein Pax-8 (Homo sapiens, UniProt Q06710)", "sequence (Q06710 whole entry)": "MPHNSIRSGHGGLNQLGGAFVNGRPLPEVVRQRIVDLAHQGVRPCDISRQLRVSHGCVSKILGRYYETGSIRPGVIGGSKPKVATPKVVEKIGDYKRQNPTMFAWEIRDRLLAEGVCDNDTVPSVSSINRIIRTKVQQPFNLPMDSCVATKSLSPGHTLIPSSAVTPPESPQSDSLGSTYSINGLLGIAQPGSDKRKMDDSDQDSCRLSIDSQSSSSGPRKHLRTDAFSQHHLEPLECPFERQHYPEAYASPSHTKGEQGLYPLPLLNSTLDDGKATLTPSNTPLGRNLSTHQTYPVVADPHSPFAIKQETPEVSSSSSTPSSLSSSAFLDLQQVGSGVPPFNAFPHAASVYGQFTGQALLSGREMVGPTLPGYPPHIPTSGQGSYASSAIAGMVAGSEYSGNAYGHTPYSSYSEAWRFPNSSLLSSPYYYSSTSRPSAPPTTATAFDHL", "experiment": "PAX8 transcriptional activity inhibition in RMG-I – RMG-I cells, luciferase, cherry-pick, dose response (AID 687027);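 also: luciferase reporter driven by Pax8 target thyroperoxidase promoter measured by SteadyGlo luminescence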", "assay_type": "functional, cell-based"}, "[12]": {"target": "5-hydroxytryptamine receptor 2A (Mus musculus, UniProt P35363)", "sequence (P35363 whole entry)": "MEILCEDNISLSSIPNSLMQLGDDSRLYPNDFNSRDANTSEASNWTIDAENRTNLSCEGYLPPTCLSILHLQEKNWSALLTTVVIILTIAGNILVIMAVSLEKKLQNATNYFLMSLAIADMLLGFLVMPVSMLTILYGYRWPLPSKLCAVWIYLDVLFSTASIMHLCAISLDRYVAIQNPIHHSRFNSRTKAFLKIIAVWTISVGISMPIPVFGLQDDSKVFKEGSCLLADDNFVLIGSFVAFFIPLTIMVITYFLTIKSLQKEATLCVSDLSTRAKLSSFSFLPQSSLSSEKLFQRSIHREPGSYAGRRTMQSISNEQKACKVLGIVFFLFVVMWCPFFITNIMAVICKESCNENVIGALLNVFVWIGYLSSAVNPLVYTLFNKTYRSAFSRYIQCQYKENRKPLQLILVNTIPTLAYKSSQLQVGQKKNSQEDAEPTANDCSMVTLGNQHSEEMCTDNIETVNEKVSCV", "assay_type": "functional, cell-based"}, "Mu-type opioid receptor": {"target": "Mu-type opioid receptor (Homo sapiens, UniProt P35372)", "sequence (P35372 whole entry)": "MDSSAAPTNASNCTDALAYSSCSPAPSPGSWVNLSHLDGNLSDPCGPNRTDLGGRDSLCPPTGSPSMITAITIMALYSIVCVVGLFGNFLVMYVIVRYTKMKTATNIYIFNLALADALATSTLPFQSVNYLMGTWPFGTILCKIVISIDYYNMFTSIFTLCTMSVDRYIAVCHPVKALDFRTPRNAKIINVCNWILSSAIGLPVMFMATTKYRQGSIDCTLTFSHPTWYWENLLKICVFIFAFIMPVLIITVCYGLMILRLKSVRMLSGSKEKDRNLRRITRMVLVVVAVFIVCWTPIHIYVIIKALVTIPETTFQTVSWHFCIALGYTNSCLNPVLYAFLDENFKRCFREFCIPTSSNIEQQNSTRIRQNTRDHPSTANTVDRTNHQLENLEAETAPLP", "assay_type": "functional, cell-based"}}, "note": "The source made the active and inactive calls.", "data": [{"smiles": "Cc1cccc2c(C(=O)O)c3cccc(C)c3nc12", "values": [{"measurement": "EC50", "setting": "Kallikrein-7", "result": "> 69.5 µM (inactive)"}]}, {"smiles": "COc1ccc(OCc2ccc(/C=N\\NC(=O)c3sccc3C)o2)cc1", "values": [{"measurement": "EC50", "setting": "[1]", "result": "> 91.2 µM (inactive)"}, {"measurement": "EC50", "setting": "[2]", "result": "> 91.2 µM (inactive)"}]}, {"smiles": "COc1ccc(NS(=O)(=O)c2cc(NC(=O)/C=C/c3cc(OC)c(OC)c(OC)c3)ccc2N2CCCCC2)cc1", "values": [{"measurement": "EC50", "setting": "[3]", "result": "1.63 µM (active)"}, {"measurement": "IC50", "setting": "Albumin", "result": "> 94.1 µM (inactive)"}, {"measurement": "EC50", "setting": "[4]", "result": "> 60 µM (not active)"}]}, {"smiles": "COc1ncc(-c2ccc3cc(C(=O)N4CCCC(CO)C4)ccc3c2)cn1", "note": "(centres undefined)", "values": [{"measurement": "IC50", "setting": "[5]", "result": 2.17, "unit": "µM"}]}, {"smiles": "CC(C)N(C[C@@H]1N[C@@H](CO)[C@@H]1c1ccccc1)S(=O)(=O)c1ccccc1", "values": [{"measurement": "AC50", "setting": "[6]", "result": "0.473 µM (active)"}, {"measurement": "AC50", "setting": "[7]", "result": "32.2 µM (active)"}]}, {"smiles": "CCC(=O)c1ccc(OCc2cn(CC(=O)c3ccc(O)cc3)nn2)cc1", "values": [{"measurement": "IC50", "setting": "[8]", "result": "7.63 µM (active)"}, {"measurement": "IC50", "setting": "[9]", "result": "12.5 µM (active)"}]}, {"smiles": "C[C@@H]1CN([C@H](C)CO)C(=O)c2cc(NC(=O)Cc3ccccc3)ccc2O[C@@H](C)CCCCO[C@H]1CN(C)Cc1ccc(C(F)(F)F)cc1", "values": [{"measurement": "AC50", "setting": "[10]", "result": "63.1 µM (active)"}, {"measurement": "AC50", "setting": "[6]", "result": "0.795 µM (active)"}, {"measurement": "AC50", "setting": "[7]", "result": "13.8 µM (active)"}, {"measurement": "AC50", "setting": "[11]", "result": "3.83 µM (active)"}, {"measurement": "AC50", "setting": "Paired box protein Pax-8", "result": "3.98 µM (active)"}]}, {"smiles": "O=C(c1ccc2cc(-c3ccccc3OCc3ccccc3)ccc2c1)N1CCCC(CO)C1", "note": "(centres undefined)", "values": [{"measurement": "IC50", "setting": "[5]", "result": "9.35 µM (active)"}]}, {"smiles": "O=C(CNCc1cccs1)Nc1cc(S(=O)(=O)N2CCCC2)ccc1Cl", "values": [{"measurement": "EC50", "setting": "[12]", "result": "18.4 µM (inactive)"}, {"measurement": "EC50", "setting": "Mu-type opioid receptor", "result": "92.5 µM (inactive)"}]}]}
